Assay [1] relates to E. coli. The assay is classed as cell-based, Escherichia coli (ATCC 35218). The procedure:
(§1) The polymers were initially tested to determine their antibacterial properties in the solution state. Antibacterial activities of the compounds were tested using the methods described above for both Gram-negative and Gram-positive bacterial strains.
(§2) The minimum inhibitory concentration (MIC) for each polymer was determined according to Clinical Laboratory Standards Institute (CLSI) broth microdilution protocols (M7-A6). The procedure explained previously was followed (Chongsiriwatana et al., supra); briefly, serial dilutions of the polymers were prepared in Mueller-Hinton broth (MHB) in 96-well microtiter plates and bacterial inoculum in MHB was added to each well (˜5.0×10^4 CFU/well). Optical density was monitored at 590 nm for 16 h at 35° C.

Assay [2] concerns B. subtilis. The assay is classed as cell-based, Bacillus subtilis (ATCC 6633). To be noted: 16 h. The procedure: as §1, §2
Assay [3] relates to S. epidermidis. It counts as cell-based, Staphylococcus epidermidis RP62A (ATCC 12228). To be noted: 16 h. As to the method: as §1, §2
Assay [4] concerns P. aeruginosa. It counts as cell-based, Pseudomonas aeruginosa (ATCC 700829). Conditions: 16 h. The procedure:
as §1, §2

Assay [5] concerns E. coli. Nature of the assay: Antibacterial activity on surfaces: bacterial adhesion and membrane permeation (FITC) on modified TiO2 slides. To be noted: for E. coli attachment to modified TiO2: 2 h exposure, compared with bare TiO2; for Percent FITC-stained bacteria: compared among surfaces. The assay is classed as cell-based, Escherichia coli. The procedure:
Bacterial experiments on modified TiO2 slides were performed by exposing the surfaces to an E. coli suspension for two hours and then centrifuging to remove unattached and weakly attached bacteria. The bacteria remaining on the surfaces were imaged in phase contrast for determination of cell numbers, and in fluorescence after staining with FITC to detect cells with compromised membranes. From these images, total number of adherent bacteria (from phase contrast) and percent of attached cells with compromised membranes (from FITC staining) were determined and are shown in Table 3.
E. coli were streaked from frozen stocks onto Mueller-Hinton agar and incubated overnight at 37° C. A few colonies were then used to inoculate 25 ml of sterile Mueller-Hinton broth (MHB) and grown overnight at 37° C. TiO2-coated glass slides were modified with the polymers using the previously described procedure. Two-well chambers were clamped to the slides and sealed by injecting silastic resin, which was allowed to cure overnight. Slides were sterilized by exposure to UV light for 10 minutes. The bacterial suspension was concentrated by centrifugation and resuspended in PBS at a concentration of 5×10^7 CFU/ml; 2 ml of the E. coli suspension was added to each slide chamber. Slide chambers were covered and placed in a humidified incubator at 37° C.; after 2 h, nonadherent bacteria were removed by inverted centrifugation for 2 min at 30 rcf in sealed bags filled with PBS (Jensen et al., 2004). […] Slides were rinsed with PBS and imaged by confocal microscopy equipped with an inverted microscope (Leica TCS SP2). Phase contrast and fluorescent (488-nm band-pass filter for excitation of FITC) images were taken at identical locations to determine bacterial cell count and percent stained with FITC. The microscopy images were quantified using thresholding in ImageJ, and averages with standard deviations for at least nine images from one slide are reported. While slides were prepared in duplicate or triplicate and consistency was qualitatively confirmed between experimental samples, the reported counts and images were obtained from a single slide for each condition.

Assay [6] relates to E. coli, B. subtilis, S. epidermidis and P. aeruginosa. Nature of the assay: Antibacterial activity in solution (MIC), statements for all bacterial strains. The assay is classed as cell-based. Conditions: for Antibacterial activity in solution: tested concentrations. As to the method:
as §1, §2

In brackets after ≈: the same amount, converted by molar mass. Read-outs that look alike come from different tables or passages of the source. Starred links: 1 amine or outer side, 2 acyl side, 3 side chain; linkers in the order of their positions; H or OH if unused. Non-standard residues stand in square brackets, D forms with d. Residues, ends and D or L forms follow the SMILES beside them. N(1S-Me-propyl)Gly = CC[C@H](C)NCC(=O)O; Dopa = N[C@@H](Cc1ccc(O)c(O)c1)C(=O)O; X1 = O=C(CN(CC(F)(F)F)[*:1])[*:2]; Nspe = C[C@H](NCC(=O)O)c1ccccc1; Nlys = NCCCCNCC(=O)O; Nme = COCCNCC(=O)O

For the compound `COCCN(CC(=O)N(CCOC)CC(=O)N(CCOC)CC(=O)N(CCOC)CC(=O)N(CCOC)CC(=O)N(CCOC)CC(=O)N(CCOC)CC(=O)N(CCOC)CC(=O)N(CCOC)CC(=O)N(CCOC)CC(=O)N(CC(=O)N[C@@H](Cc1ccc(O)c(O)c1)C(=O)N[C@@H](CCCCN)C(=O)N[C@@H](Cc1ccc(O)c(O)c1)C(=O)N[C@@H](CCCCN)C(=O)N[C@@H](Cc1ccc(O)c(O)c1)C(N)=O)CC(F)(F)F)C(=O)CN(CCOC)C(=O)CN(CCOC)C(=O)CN(CCOC)C(=O)CN(CCOC)C(=O)CN(CCOC)C(=O)CN(CCOC)C(=O)CN(CCOC)C(=O)CN(CCOC)C(=O)CN(CCOC)C(=O)CN(CCOC)C(=O)CN(C(=O)CN(C(=O)CN(CCCCN)C(=O)CN(C(=O)CN(C(=O)CN(CCCCN)C(=O)[C@@H]1CCCN1C(=O)CN(C(=O)CN(CCCCN)C(=O)CN(C(=O)CN(C(=O)CNCCCCN)[C@@H](C)c1ccccc1)[C@@H](C)c1ccccc1)[C@@H](C)c1ccccc1)[C@@H](C)c1ccccc1)[C@@H](C)c1ccccc1)[C@@H](C)c1ccccc1)[C@@H](C)c1ccccc1` [PMP1-AMP] (H-[Nlys][Nspe][Nspe][Nlys][Nspe]P[Nlys][Nspe][Nspe][Nlys][Nspe][Nspe][Nme][Nme][Nme][Nme][Nme][Nme][Nme][Nme][Nme][Nme][Nme][Nme][Nme][Nme][Nme][Nme][Nme][Nme][Nme][Nme][X1][Dopa]K[Dopa]K[Dopa]-NH2), in assay [1] (16 h), the “MIC E. coli” value was determined as 50 µM (≈ 250 µg/mL). Also, the “MIC B. subtilis” value in assay [2] was found to be 3.1 µM (≈ 15.5 µg/mL). Further, the “MIC S. epidermidis” value in assay [3] came to 3.1 µM (≈ 15.5 µg/mL). Also, the “MIC P. aeruginosa” value in assay [4] was determined as 200 µM (≈ 998 µg/mL). Besides, in assay [5], the “E. coli attachment to modified TiO2” value is “comparable to bare TiO2 surfaces”. Moreover, in assay [5] (adhered E. coli, 2 h), the “Total number of FITC-stained bacteria relative to PMP110 surfaces” value is recorded as “more than ten times greater”. Moreover, the “Percent FITC-stained bacteria” value in assay [5] (adhered E. coli) is reported as “highest percentage of bacterial cells with compromised membranes”. Besides, in assay [6], the “MIC relative to AMP alone (times greater)” value is 2-4 times and the “Antibacterial activity in solution” value is given as “active against all bacterial strains”.

On to `C[C@@H](c1ccccc1)N(CC(N)=O)C(=O)CN(C(=O)CN(CCCCN)C(=O)CN(C(=O)CN(C(=O)CN(CCCCN)C(=O)[C@@H]1CCCN1C(=O)CN(C(=O)CN(CCCCN)C(=O)CN(C(=O)CN(C(=O)CNCCCCN)[C@@H](C)c1ccccc1)[C@@H](C)c1ccccc1)[C@@H](C)c1ccccc1)[C@@H](C)c1ccccc1)[C@@H](C)c1ccccc1)[C@@H](C)c1ccccc1` [AMP, H-NLys-Nspe-Nspe-NLys-Nspe-Pro-[NLys-Nspe-Nspe]2—NH2] (H-[Nlys][Nspe][Nspe][Nlys][Nspe]P[Nlys][Nspe][Nspe][Nlys][Nspe][Nspe]-NH2), for which, in assay [1] (solution, MHB, 16 h at 35° C.), the “MIC E. coli” value stood at 12.5 µM (≈ 21.9 µg/mL). Also, in assay [2], the “MIC B. subtilis” value turned out to be 1.6 µM (≈ 2.81 µg/mL). For the same compound, the “MIC S. epidermidis” value in assay [3] was 1.6 µM (≈ 2.81 µg/mL). In assay [4], the “MIC P. aeruginosa” value was determined as 25 µM (≈ 43.9 µg/mL).

As to `CC[C@H](C)N(CC(N)=O)C(=O)CN(C(=O)CN(CCCCN)C(=O)CN(C(=O)CN(C(=O)CN(CCCCN)C(=O)CN(C(=O)CN(C(=O)CN(CCCCN)C(=O)CN(C(=O)CN(C(=O)CNCCCCN)[C@@H](C)CC)[C@@H](C)CC)[C@@H](C)CC)[C@@H](C)CC)[C@@H](C)CC)[C@@H](C)CC)[C@@H](C)CC` [Peptoid C, H-[NLys-Nssb-Nssb]4-NH2, reference compound] (H-[Nlys][N(1S-Me-propyl)Gly][N(1S-Me-propyl)Gly][Nlys][N(1S-Me-propyl)Gly][N(1S-Me-propyl)Gly][Nlys][N(1S-Me-propyl)Gly][N(1S-Me-propyl)Gly][Nlys][N(1S-Me-propyl)Gly][N(1S-Me-propyl)Gly]-NH2), the “MIC E. coli” value in assay [1] (16 h) is above 100 µM. For the same compound, the “MIC B. subtilis” value in assay [2] was above 100 µM. In addition, in assay [3], the “MIC S. epidermidis” value is above 100 µM. Moreover, the “MIC P. aeruginosa” value in assay [4] is above 100 µM. Further, the “Antibacterial activity in solution” value in assay [6] is on record as “not active at the tested concentrations”.

Consider `CC[C@H](C)N(CC(=O)N(CCCCN)CC(=O)N(CC(=O)N(CC(=O)N(CCCCN)CC(=O)N(CC(=O)N(CC(=O)N(CCCCN)CC(=O)N(CC(=O)N(CC(=O)N(CCOC)CC(=O)N(CCOC)CC(=O)N(CCOC)CC(=O)N(CCOC)CC(=O)N(CCOC)CC(=O)N(CCOC)CC(=O)N(CCOC)CC(=O)N(CCOC)CC(=O)N(CCOC)CC(=O)N(CCOC)CC(=O)N(CCOC)CC(=O)N(CCOC)CC(=O)N(CCOC)CC(=O)N(CCOC)CC(=O)N(CCOC)CC(=O)N(CCOC)CC(=O)N(CCOC)CC(=O)N(CCOC)CC(=O)N(CCOC)CC(=O)N(CCOC)CC(=O)N(CC(=O)N[C@@H](Cc1ccc(O)c(O)c1)C(=O)N[C@@H](CCCCN)C(=O)N[C@@H](Cc1ccc(O)c(O)c1)C(=O)N[C@@H](CCCCN)C(=O)N[C@@H](Cc1ccc(O)c(O)c1)C(N)=O)CC(F)(F)F)[C@@H](C)CC)[C@@H](C)CC)[C@@H](C)CC)[C@@H](C)CC)[C@@H](C)CC)[C@@H](C)CC)C(=O)CN(C(=O)CNCCCCN)[C@@H](C)CC` [PMP1-C, reference compound] (H-[Nlys][N(1S-Me-propyl)Gly][N(1S-Me-propyl)Gly][Nlys][N(1S-Me-propyl)Gly][N(1S-Me-propyl)Gly][Nlys][N(1S-Me-propyl)Gly][N(1S-Me-propyl)Gly][Nlys][N(1S-Me-propyl)Gly][N(1S-Me-propyl)Gly][Nme][Nme][Nme][Nme][Nme][Nme][Nme][Nme][Nme][Nme][Nme][Nme][Nme][Nme][Nme][Nme][Nme][Nme][Nme][Nme][X1][Dopa]K[Dopa]K[Dopa]-NH2), for which, in assay [1] (16 h), the “MIC E. coli” value was above 100 µM. Also, the “MIC B. subtilis” value in assay [2] was above 100 µM. Further, the “MIC S. epidermidis” value in assay [3] was above 100 µM. The “MIC P. aeruginosa” value in assay [4] was above 100 µM. In assay [5], the “E. coli attachment to modified TiO2” value was “much higher than PMP1-AMP and TiO2 surfaces”. In addition, in assay [5] (adhered E. coli), the “Percent FITC-stained bacteria” value was “low and comparable to the control TiO2 substrates”. Further, the “Antibacterial activity in solution” value in assay [6] was “not active at the tested concentrations”.

These data come from patent publication US10676509B2, “Surface-immobilized antimicrobial peptoids” (Northwestern University, priority 2008, dated 2020).
